Assay results reported in patent US8372823B2, “Tetracyclic inhibitors of fatty acid amide hydrolase” (The Scripps Research Institute, priority 2007, dated 2013).
pIC50, pKi: −log10 of the molar value.

Key:
[1] = biological target: T1, purified recombinant rat FAAH (Rattus norvegicus, UniProt P97612); assay: FAAH enzyme assay, Ki (Dixon plot), rat FAAH; assay type: biochemical; conditions: purified recombinant rat FAAH expressed in E. coli; 14C-oleamide hydrolysis; pH 9.0; 20-23° C.
T1 construct: made in house; host or cells: E. coli
T1 sequence (P97612 1-579): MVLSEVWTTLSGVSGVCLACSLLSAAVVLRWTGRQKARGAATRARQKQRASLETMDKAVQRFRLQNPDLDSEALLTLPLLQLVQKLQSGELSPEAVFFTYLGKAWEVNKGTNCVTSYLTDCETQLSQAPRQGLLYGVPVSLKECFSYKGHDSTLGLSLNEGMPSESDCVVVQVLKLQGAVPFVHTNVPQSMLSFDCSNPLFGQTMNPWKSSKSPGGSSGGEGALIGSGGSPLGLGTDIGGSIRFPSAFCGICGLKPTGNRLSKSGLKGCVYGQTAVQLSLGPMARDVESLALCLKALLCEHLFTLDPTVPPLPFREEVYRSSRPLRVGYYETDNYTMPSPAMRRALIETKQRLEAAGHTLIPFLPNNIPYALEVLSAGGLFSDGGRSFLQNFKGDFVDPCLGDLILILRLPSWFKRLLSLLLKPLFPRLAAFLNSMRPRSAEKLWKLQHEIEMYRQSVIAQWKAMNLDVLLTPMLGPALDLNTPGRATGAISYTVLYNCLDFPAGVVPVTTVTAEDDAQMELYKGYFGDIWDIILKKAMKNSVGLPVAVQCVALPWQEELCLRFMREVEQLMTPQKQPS

[2] = biological target: T2, FAAH (Homo sapiens, UniProt O00519); assay: FAAH enzyme assay, Ki (Dixon plot), human FAAH; assay type: biochemical; design: expressed in transfected cells; host or cells: COS-7 (transient transfection), solubilized membrane extracts; conditions: solubilized COS-7 membrane extracts, human FAAH cDNA; 14C-oleamide hydrolysis; pH 9.0; 20-23° C.
T2 sequence (O00519 1-579): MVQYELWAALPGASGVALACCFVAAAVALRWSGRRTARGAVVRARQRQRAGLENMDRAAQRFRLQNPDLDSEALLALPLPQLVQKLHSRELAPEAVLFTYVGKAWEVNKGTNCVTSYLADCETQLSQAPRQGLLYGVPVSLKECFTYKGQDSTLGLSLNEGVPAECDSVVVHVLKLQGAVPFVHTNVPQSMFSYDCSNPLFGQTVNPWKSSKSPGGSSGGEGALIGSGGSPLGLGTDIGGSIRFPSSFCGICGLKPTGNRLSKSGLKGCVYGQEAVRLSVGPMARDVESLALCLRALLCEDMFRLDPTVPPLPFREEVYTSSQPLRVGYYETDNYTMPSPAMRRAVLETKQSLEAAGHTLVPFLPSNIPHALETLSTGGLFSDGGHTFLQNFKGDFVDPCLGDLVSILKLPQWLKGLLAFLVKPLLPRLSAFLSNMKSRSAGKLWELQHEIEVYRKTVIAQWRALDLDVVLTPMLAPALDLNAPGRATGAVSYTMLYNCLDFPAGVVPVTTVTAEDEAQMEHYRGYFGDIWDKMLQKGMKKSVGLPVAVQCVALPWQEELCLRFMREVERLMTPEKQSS

[3] = rats; cited from earlier work
[4] = rats; cited from earlier work; remark: listed apart in the source
[5] = biological target: T2, FAAH; assay: FAAH inhibition IC50, human; assay type: biochemical; design: expressed in transfected cells; host or cells: COS-7 (transient transfection), solubilized membrane extracts; conditions: inhibition at 3-5 test compound concentrations
Protocol: (§1) Enzyme assays were performed at 20-23° C. with purified recombinant rat FAAH expressed in E. coli (Patricelli, M. P.; Lashuel, H. A.; et al. Biochemistry 1998, 37, 15177-15187) (unless indicated otherwise) or with solubilized COS-7 membrane extracts from cells transiently transfected with human FAAH cDNA (Giang, D. K.; Cravatt, B. F. Proc. Natl. Acad. Sci. U.S.A. 1997, 94, 2238-2242) (where specifically indicated) in a buffer of 125 mM Tris/1 mM EDTA/0.2% glycerol/0.02% Triton X-100/0.4 mM Hepes, pH 9.0 buffer (Patricelli, M. P.; Patterson, J. P.; et al. Bioorg. Med. Chem. Lett. 1998, 8, 613-618). […] NT=no data available.
(§2) IC50 values were determined from the inhibition observed at 3-5 different test compound concentrations (from three or more trials at each concentration) using the formula IC50=[I]/[K0/Ki)-1], where K0 is the control reaction rate without inhibitor and Ki is the rate with test compound at concentration [I] (Conde-Frieboes, K. et al. J. Am. Chem. Soc. 1996, 118, 5519-5525). NT=no data available.

[6] = biological target: T3, rat FAAH (Rattus norvegicus, UniProt P97612); assay: FAAH inhibition IC50, rat; assay type: biochemical; conditions: inhibition at 3-5 test compound concentrations
T3 construct: made in house; host or cells: E. coli
T3 sequence (P97612 1-579): T1 sequence (P97612 1-579)
Protocol: as §1, §2

[7] = rats; cited from earlier work; remark: listed apart in the source
[8] = rat; cited from earlier work
[9] = rat; cited from earlier work; remark: listed apart in the source
[10] = CREAE mice, model of multiple sclerosis; cited from earlier work
[11] = rats; cited from earlier work; remark: listed apart in the source
[12] = biological target: T2, FAAH; conditions: cited from earlier work

With O=C(CCc1ccc(OCc2ccccc2)cc1)c1nc2ncccc2o1 [Example 11k, 3-(4-(Benzyloxy)phenyl)-1-(oxazolo[4,5-b]pyridin-2-yl)propan-1-one] as the compound, how does the pKi [1] read?
Its pKi is 9.42.

What about the pKi [2] of the same compound?
The pKi was 9.22.

With O=C(CCc1ccc(OCc2ccccc2)cc1)c1ncc(-c2ccccn2)o1 [Example 11a, 1-Oxo-1-[5-(2-pyridyl)oxazol-2-yl]-3-(4-(benzyloxy)phenyl)propane] as the compound, how does the pKi [1] read?
Its pKi is 8.89.

And the melting point?
The melting point was 99 to 100 °C.

What about the pKi [2] of the same compound?
Its pKi is 9.35.

With O=C(CCc1ccc(COc2ccccc2)cc1)c1ncc(-c2ccccn2)o1 [Example 11e, 3-(4-(Phenoxymethyl)phenyl)-1-(5-(pyridin-2-yl)oxazol-2-yl)propan-1-one] as the compound, how does the pKi [1] read?
Its pKi is 9.00.

What about the pKi [2] of the same compound?
The pKi was 8.30.

What does the source list for Cc1nc(-c2ccccc2)c(-c2ccccc2)n1CCCCCCNC(=O)Oc1ccccc1F [BMS-1]?
analgesic effect in Chung spinal nerve ligation model [3]: analgesic effect; analgesic effect in Hargraves test of acute thermal nociception [4]: analgesic effect

With COC(=O)c1cccc(-c2cnc(C(=O)CCc3ccc(-c4ccccc4)cc3)o2)n1 [Example 21, 6-[2-(3-Biphenyl-4-yl-propionyl)-oxazol-5-yl]-pyridine-2-carboxylic acid methyl ester] as the compound, how does the pIC50 [5] read?
Its pIC50 is 8.52.

And the pKi [1]?
Its pKi is 8.92.

And the pIC50 [6]?
The pIC50 was 9.30.

What about the pKi [2] of the same compound?
Its pKi is 8.92.

With NC(=O)c1cccc(-c2cccc(OC(=O)NC3CCCCC3)c2)c1 [URB-597] as the compound, how does the “efficacy in zero plus maze model of anxiety” value [7] read?
Its value is “efficacy”.

What about the “analgesic activity in hot plate test” value [8] of the same compound?
The value was “analgesic efficacy”.

What about the “analgesic efficacy in formalin test” value [9] of the same compound?
The value was “analgesic efficacy”.

With CCCCCCCCCCCCCCCCS(=O)(=O)F [AM374] as the compound, how does the reduction of spasticity [10] read?
Its reduction of spasticity is “significantly reduce spasticity”.

For O=C(CCCCCCc1ccccc1)c1ncc(-c2ccccn2)o1 [OL-135], which “analgesic activity in tail emersion test” value [11] is on record?
Its value is “analgesic activity”.

And the “inhibition of FAAH” value [12]?
Its value is “potent inhibitor”.

And the “analgesic activity in hot plate test” value [8]?
Its value is “analgesic activity”.

With COC(=O)c1cc(-c2cnc(C(=O)CCc3ccc(-c4ccccc4)cc3)o2)ccn1 [Example 28, 4-[2-(3-Biphenyl-4-yl-propionyl)-oxazol-5-yl]-pyridine-2-carboxylic acid methyl ester] as the compound, how does the pIC50 [5] read?
The pIC50 was 7.54.

What about the pKi [1] of the same compound?
The pKi was 8.80.

And the pIC50 [6]?
Its pIC50 is 8.82.
